ChEMBL document CHEMBL4304800, “C4-Phenylthio β-lactams: Effect of the chirality of the β-lactam ring on antimicrobial activity” (2019)
Converted amounts (≈) assume the structure as drawn. The source made the active and inactive calls. No cut-off for these calls is given here.

How the values were obtained:
[1] = test system: Mycobacterium tuberculosis; assay: Antitubercular activity against serine beta-lactamase producing Mycobacterium tuberculosis H37Rv after 14 days in presence of Glu/Cas medium by eleven fold serial dilution method; format: functional; conditions: 336 h
[2] = test system: Mycobacterium tuberculosis; assay: Antitubercular activity against clinical drug sensitive Mycobacterium tuberculosis K14b00DS after 14 days in presence of middlebrook 7H9/BSA medium by eleven fold serial dilution method; format: functional; conditions: 336 h
[3] = test system: Mycobacterium tuberculosis; assay: Antitubercular activity against serine beta-lactamase producing Mycobacterium tuberculosis H37Rv after 14 days in presence of DPCC/Cas medium by eleven fold serial dilution method; format: functional; conditions: 336 h
[4] = test system: Mycobacterium tuberculosis; assay: Antitubercular activity against serine beta-lactamase producing Mycobacterium tuberculosis H37Rv after 14 days in presence of middlebrook 7H9/BSA medium by eleven fold serial dilution method; format: functional; conditions: 336 h
[5] = test system: Mycobacterium tuberculosis; assay: Antitubercular activity against serine beta-lactamase producing Mycobacterium tuberculosis H37Rv after 14 days in presence of Chol/BSA medium by eleven fold serial dilution method; format: functional; conditions: 336 h
Moraxella catarrhalis = assay: Bactericidal activity against serine beta-lactamase producing Moraxella catarrhalis incubated in MH broth for 24 to 48 hrs by microbroth dilution method; format: functional
[6] = test system: Mycobacterium tuberculosis; assay: Antitubercular activity against serine beta-lactamase producing Mycobacterium tuberculosis H37Rv after 14 days in presence of DPPC/BSA medium by eleven fold serial dilution method; format: functional; conditions: 336 h
[7] = test system: Mycobacterium tuberculosis; assay: Antitubercular activity against serine beta-lactamase producing Mycobacterium tuberculosis H37Rv after 14 days in presence of Glu/BSA medium by eleven fold serial dilution method; format: functional; conditions: 336 h
[8] = test system: Mycobacterium tuberculosis; assay: Bactericidal activity against non-replicating persistant form of Mycobacterium tuberculosis H37Rv assessed as minimum anaerobicidal concentration by measuring log reduction in viable microbe number at 200 ug/ml preincubated for 7 days in anaerobic condition post adaptation to decreasing oxygen levels and further incubated in middlebrook 7H11/BSA supplemented with ODAC for 4 to 5 weeks by serial dilution based assay; format: functional
[9] = test system: Mycobacterium tuberculosis; assay: Antitubercular activity against serine beta-lactamase producing Mycobacterium tuberculosis H37Rv after 14 days in presence of GAST/Fe medium by eleven fold serial dilution method; format: functional; conditions: 336 h
[10] = test system: Mycobacterium tuberculosis; assay: (§1) Bactericidal activity against serine beta-lactamase producing Mycobacterium tuberculosis H37Rv assessed as induction of microbial kill at MIC preincubated in middlebrook 7H9 medium for 7 days and further incubated in middlebrook 7H11/BSA supplemented with OADC for 3 weeks by serial dilution based colony counting method; format: functional
[11] = test system: Mycobacterium tuberculosis; assay: as §1, with “reduction in” for “induction of”, “cell number” for “kill”; format: functional, organism-based

Structure (SMILES) | MIC [1] | MIC [2] | MIC [3] | MIC99 [4] | MIC [5] | MIC (Moraxella catarrhalis) | MIC [6] | MIC [7] | MBC (Moraxella catarrhalis) | Activity [8] | MIC99 [9] | LCK [10] | Activity [11]
O=C1CC(Sc2ccc(C(F)(F)F)cc2)N1C(=O)NCc1ccccc1 (racemic) | 1.5 mg/L | 25 mg/L | 0.78 mg/L | 12.5 mg/L | 25 mg/L | 1.6 mg/L (≈ 4.21 µM) | 25 mg/L | 25 mg/L | – | – | – | – | –
O=C1CC(Sc2cccc(C(F)(F)F)c2)N1 (racemic) | 12.5 mg/L | – | 0.78 mg/L | 25 mg/L | 12.5 mg/L | 1.5 mg/L (≈ 6.07 µM) | 12.5 mg/L | 25 mg/L | 1.5 mg/L (≈ 6.07 µM) | – | – | – | –
C[C@@H](NC(=O)N1C(=O)C[C@H]1Sc1c(F)c(F)c(F)c(F)c1F)c1ccccc1 | – | – | – | > 100 mg/L | – | 3.1 mg/L (≈ 7.45 µM) | – | – | 3.1 mg/L (≈ 7.45 µM) | 1 log10CFU/ml | 0.3 mg/L | <3 | Active
O=C1CC(Sc2c(F)c(F)c(F)c(F)c2F)N1C(=O)NCc1ccccc1 (racemic) | 1.5 mg/L | – | 0.78 mg/L | 12.5 mg/L | 25 mg/L | – | 25 mg/L | 6.25 mg/L | 6.2 mg/L (≈ 15.4 µM) | – | – | <3 | Active
O=C1CC(Sc2ccc(F)cc2Cl)N1C(=O)NCc1ccccc1 (racemic) | 1.5 mg/L | – | 0.78 mg/L | 37.5 mg/L | 18.8 mg/L | – | 12.5 mg/L | 25 mg/L | 12.5 mg/L (≈ 34.3 µM) | – | 0.3 mg/L | – | –
C[C@@H](NC(=O)N1C(=O)C[C@@H]1Sc1c(F)c(F)c(F)c(F)c1F)c1ccccc1 | – | – | – | > 100 mg/L | – | 12.5 mg/L (≈ 30 µM) | – | – | 12.5 mg/L (≈ 30 µM) | 1 log10CFU/ml | – | <3 | Active
